Measurements as given in patent US4292317A, “1,4-Dihydro-quinoline-3-carboxylic acid derivatives, process for their preparation and compositions containing them” (Laboratorie Roger Bellon, priority 1977, dated 1981).
In brackets after ≈: the same amount, converted by molar mass. Where two headings read alike, the source gives them in different places.

What was measured:
Staph. aureus 50,774 [1] = assay: Systemic infection in mice; format: in vivo; settings: Staphylococcus aureus, po, 336 h
Procedure: (§1) The activity of the compounds according to the invention against systemic infections in mice, caused by Staphylococcus 50,774, Streptococcus pyogenes A 65, Pseudomonas aeruginosa No. 12 and Escherichia coli P 5101, has been studied.
(§2) The infections were set up by intraperitoneal injection of a suspension of the bacterial culture corresponding to the germ studied. The products were administered orally at the time of injection, and 6 hours later. […] Aureus and for 7 days for the other germs.
(§3) Oxolinic acid was used as the reference substance.

Strept. pyogenes A. 65 [2] = assay: Systemic infection in mice; format: in vivo; settings: Streptococcus pyogenes, 168 h
Procedure: as §1, §2, §3

[3] = tested on: Pseudomonas aeruginosa No. 12; assay: Systemic infection in mice; format: in vivo; settings: 168 h
Procedure: as §1, §2, §3

Escherichia coli P 5101 [4] = assay: Systemic infection in mice; format: in vivo; settings: P5101, po, 168 h
Procedure: as §1, §2, §3

Salm. typhi 0901 = assay: microbe, parasite or virus in culture; format: cell-based; settings: Salmonella enterica, 18 h; Table III; Salm. typhi 0901
Procedure: (§4) After sterilisation at 120° C., the pH was 6.8.
(§5) The minimum inhibitory concentrations (M.I.C.) were determined by dilution of the test compounds in this mixture, the concentration ranging from 0.05 to 100 μg/cm^3 in a geometric progression with a factor of 2.
(§6) The inoculation of the dishes was carried out by means of a multiple inoculator with 10^-3 dilutions of 18 hour old broth cultures.
(§7) The dishes were placed in an oven at 37° C. and the readings were taken afer an incubation time of 18 hours. The M.I.C. was taken as the lowest concentration which inhibited a culture.

Staph. aureus 50,774 [5] = assay: M.I.C. for germ used in experimental infection; format: cell-based; settings: Staphylococcus aureus, 18 h; Table 4; Staph. aureus 50,774; read-out: M.I.C.
Procedure: as §4, §5, §6, §7

Strept. pyogenes A. 65 [6] = assay: M.I.C. for germ used in experimental infection; format: cell-based; settings: Streptococcus pyogenes, 18 h; Table 4; Strept. pyogenes A. 65; read-out: M.I.C.
Procedure: as §4, §5, §6, §7

[7] = tested on: Pseudomonas aeruginosa No. 12; assay: M.I.C. for germ used in experimental infection; format: cell-based; settings: 18 h, Table 4, P. aeruginosa No. 12, read-out: M.I.C.
Procedure: as §4, §5, §6, §7

Escherichia coli P 5101 [8] = assay: M.I.C. for germ used in experimental infection; format: cell-based; settings: P5101, 18 h, Table 4, E. coli P 5101, read-out: M.I.C.
Procedure: as §4, §5, §6, §7

Staph. 9.144 = assay: M.I.C. in vitro, nutrient agar dilution; format: cell-based; settings: 18 h; Table III; Staph. 9.144; read-out: M.I.C.
Procedure: as §4, §5, §6, §7

Serratia = assay: M.I.C. in vitro, nutrient agar dilution; format: cell-based; settings: 18 h, Table III, read-out: M.I.C.
Procedure: as §4, §5, §6, §7

Klebs. pneum. 10.031 = assay: M.I.C. in vitro, nutrient agar dilution; format: cell-based; settings: 18 h; Table III; Klebs. pneum. 10.031; read-out: M.I.C.
Procedure: as §4, §5, §6, §7

Pr. vulgaris 12-53 = assay: M.I.C. in vitro, nutrient agar dilution; format: cell-based; settings: Proteus vulgaris, 1253, 18 h; Table III; Pr. vulgaris 12-53; read-out: M.I.C.
Procedure: as §4, §5, §6, §7

Strepto D.M. 19 = assay: M.I.C. in vitro, nutrient agar dilution; format: cell-based; settings: 18 h; Table III; Strepto D.M. 19; read-out: M.I.C.
Procedure: as §4, §5, §6, §7

Providentia 0223 = assay: M.I.C. in vitro, nutrient agar dilution; format: cell-based; settings: 18 h; Table III; Providentia 0223; read-out: M.I.C.
Procedure: as §4, §5, §6, §7

Strepto A 561 = assay: M.I.C. in vitro, nutrient agar dilution; format: cell-based; settings: 18 h; Table III; Strepto A 561
Procedure: as §4, §5, §6, §7

Staph. 209 P = assay: M.I.C. in vitro, nutrient agar dilution; format: cell-based; settings: 18 h; Table III; Staph. 209 P; read-out: M.I.C.
Procedure: as §4, §5, §6, §7

Ps. aeruginosa A.22 = assay: M.I.C. in vitro, nutrient agar dilution; format: cell-based; settings: Pseudomonas aeruginosa, 18 h; Table III; Ps. aeruginosa A.22; read-out: M.I.C.
Procedure: as §4, §5, §6, §7

Ps. aeruginosa 72.345 = assay: M.I.C. in vitro, nutrient agar dilution; format: cell-based; settings: Pseudomonas aeruginosa, 18 h; Table III; Pd. aeruginosa 72.345; read-out: M.I.C.
Procedure: as §4, §5, §6, §7

S. oranienburg 1066 = assay: M.I.C. in vitro, nutrient agar dilution; format: cell-based; settings: Salmonella enterica, 18 h; Table III; S. oranienburg 1066; read-out: M.I.C.
Procedure: as §4, §5, §6, §7

Arizona 6.211 = assay: M.I.C. in vitro, nutrient agar dilution; format: cell-based; settings: 18 h; Table III; Arizona 6.211; read-out: M.I.C.
Procedure: as §4, §5, §6, §7

Pr. mirabilis Nig = assay: M.I.C. in vitro, nutrient agar dilution; format: cell-based; settings: Proteus mirabilis, 18 h; Table III; Pr. mirabilis Nig; read-out: M.I.C.
Procedure: as §4, §5, §6, §7

Esch. coli 111 B4 = assay: M.I.C. in vitro, nutrient agar dilution; format: cell-based; settings: Escherichia coli, 18 h; Table III; Esch. coli 111 B4
Procedure: as §4, §5, §6, §7

Esch. coli 95 I.S.M. = assay: M.I.C. in vitro, nutrient agar dilution; format: cell-based; settings: Escherichia coli, 18 h; Table III; Esch. coli 95 I.S.M.; read-out: M.I.C.
Procedure: as §4, §5, §6, §7

Sh. sonnei I.P.S. = assay: M.I.C. in vitro, nutrient agar dilution; format: cell-based; settings: Shigella sonnei, 18 h
Procedure: as §4, §5, §6, §7

Bord. bronchis. 4.617 = assay: M.I.C. in vitro, nutrient agar dilution; format: cell-based; settings: 18 h; Table III; Bord. bronchis. 4.617; read-out: M.I.C.
Procedure: as §4, §5, §6, §7

Pr. morganii A.236 = assay: M.I.C. in vitro, nutrient agar dilution; format: cell-based; settings: Morganella morganii, 18 h; Table III; Pr. morganii A. 236; read-out: M.I.C.
Procedure: as §4, §5, §6, §7

S. enteritidis Danysz = assay: M.I.C. in vitro, nutrient agar dilution; format: cell-based; settings: Salmonella enterica, 18 h; Table III; S. enteritidis Danysz; read-out: M.I.C.
Procedure: as §4, §5, §6, §7

B. subtilis = assay: M.I.C. in vitro, nutrient agar dilution; format: cell-based; settings: Bacillus subtilis, 18 h; Table III; B. Subtilis; read-out: M.I.C.
Procedure: as §4, §5, §6, §7

Esch. coli 54.127 O.M.S. = assay: M.I.C. in vitro, nutrient agar dilution; format: cell-based; settings: Escherichia coli, 18 h; Table III; Esch. coli 54.127 O.M.S.; read-out: M.I.C.
Procedure: as §4, §5, §6, §7

**Q.** What does the source list for CCn1cc(C(=O)O)c(=O)c2cc(F)c(N3CCN(C)CC3)cc21 [Example 20, 1-Ethyl-6-fluoro-7-(4-methylpiperazinyl)-4-oxo-1,4-dihydro-quinoline-3-carboxylic acid]?
**A.** ED50 (Staph. aureus 50,774 [1]): 2.9 mg/kg; ED90 (Staph. aureus 50,774 [1]): 9.3 mg/kg; ED50 (Strept. pyogenes A. 65 [2]; A.65, po): 65 mg/kg; ED90 (Strept. pyogenes A. 65 [2]; A.65, po): 103 mg/kg; ED50 ([3]; NO.12, po): 7.8 mg/kg; ED90 ([3]; NO.12, po): 11.5 mg/kg; ED50 (Escherichia coli P 5101 [4]): 1.8 mg/kg; ED90 (Escherichia coli P 5101 [4]): 2.8 mg/kg

**Q.** What does the source list for CCn1cc(C(=O)O)c(=O)c2cc(F)c(N3CCNCC3)cc21 [Example 22, 1-Ethyl-6-fluoro-4-oxo-7-piperazinyl-1,4-dihydro-quinoline-3-carboxylic acid]?
**A.** MIC (Salm. typhi 0901): 0.05 to 0.2 µg/mL (≈ 0.157 to 0.626 µM); MIC (Staph. aureus 50,774 [5]): 0.78 µg/mL (≈ 2.44 µM); MIC (Strept. pyogenes A. 65 [6]): 1.56 µg/mL (≈ 4.89 µM); MIC [7]: 0.78 µg/mL (≈ 2.44 µM); MIC (Escherichia coli P 5101 [8]): 0.1 µg/mL (≈ 0.313 µM); ED50 (Staph. aureus 50,774 [1]; mice, p.o. at infection and 6 hours later, Staph. aureus 50,774, 14 days, read-out: ED50): 20.6 mg/kg; ED90 (Staph. aureus 50,774 [1]; mice, p.o. at infection and 6 hours later, Staph. aureus 50,774, 14 days, read-out: ED90): 44.1 mg/kg; ED50 (Strept. pyogenes A. 65 [2]; po, mice, p.o. at infection and 6 hours later, Strept. pyogenes A. 65, 7 days, read-out: ED50): > 100 mg/kg; ED90 (Strept. pyogenes A. 65 [2]; po, mice, p.o. at infection and 6 hours later, Strept. pyogenes A. 65, 7 days, read-out: ED90): > 100 mg/kg; ED50 ([3]; po, mice, p.o. at infection and 6 hours later, P. aeruginosa No. 12, 7 days, read-out: ED50): 17.7 mg/kg; ED90 ([3]; po, mice, p.o. at infection and 6 hours later, P. aeruginosa No. 12, 7 days, read-out: ED90): 25.9 mg/kg; ED50 (Escherichia coli P 5101 [4]; mice, p.o. at infection and 6 hours later, E. coli P 5101, 7 days, read-out: ED50): 4 mg/kg; ED90 (Escherichia coli P 5101 [4]; mice, p.o. at infection and 6 hours later, E. coli P 5101, 7 days, read-out: ED90): 10.4 mg/kg; MIC (Staph. 9.144): 0.2 to 0.4 µg/mL (≈ 0.626 to 1.25 µM); MIC (Serratia): 1 to 6.2 µg/mL (≈ 3.13 to 19.4 µM); MIC (Klebs. pneum. 10.031): 0.1 to 0.2 µg/mL (≈ 0.313 to 0.626 µM); MIC (Pr. vulgaris 12-53): 0.05 µg/mL (≈ 0.157 µM); MIC (Strepto D.M. 19): 1.6 to 3.1 µg/mL (≈ 5.01 to 9.71 µM); MIC (Providentia 0223): 0.8 to 1.6 µg/mL (≈ 2.51 to 5.01 µM); MIC (Strepto A 561): 50 µg/mL (≈ 157 µM); MIC (Staph. 209 P): 0.2 to 0.4 µg/mL (≈ 0.626 to 1.25 µM); MIC (Ps. aeruginosa A.22): 0.4 to 0.8 µg/mL (≈ 1.25 to 2.51 µM); MIC (Ps. aeruginosa 72.345): 0.4 to 0.8 µg/mL (≈ 1.25 to 2.51 µM); MIC (S. oranienburg 1066): 6.2 µg/mL (≈ 19.4 µM); MIC (Arizona 6.211): 0.2 µg/mL (≈ 0.626 µM); MIC (Pr. mirabilis Nig): 0.1 to 0.2 µg/mL (≈ 0.313 to 0.626 µM); MIC (Esch. coli 111 B4): 0.1 to 0.2 µg/mL (≈ 0.313 to 0.626 µM); MIC (Esch. coli 95 I.S.M.): 0.2 µg/mL (≈ 0.626 µM); MIC (Sh. sonnei I.P.S.): 0.01 to 0.02 µg/mL (≈ 0.0313 to 0.0626 µM); MIC (Bord. bronchis. 4.617): 6.25 to 12.5 µg/mL (≈ 19.6 to 39.1 µM); MIC (Pr. morganii A.236): 0.05 µg/mL (≈ 0.157 µM); MIC (S. enteritidis Danysz): 0.2 µg/mL (≈ 0.626 µM); MIC (B. subtilis): 0.2 µg/mL (≈ 0.626 µM); MIC (Esch. coli 54.127 O.M.S.): 0.2 µg/mL (≈ 0.626 µM)
